14 compounds from patent US20210101881A1 (Ancureall Pharmaceutical (Shanghai) Co., Ltd., priority 2018, published 2021) can be followed below.

The test system of the assay is MOLM13 cells. Kind of assay: Growth inhibition of CDK9-positive cell line MOLM13 in vitro (CCK8/MTT assay). The class given is cell-based, human. The conditions noted are these: Homo sapiens, MOLM-13; MOLM13 cells, cultured 3 to 6 days, CCK8; read-out: IC50 of the compound for inhibiting cell growth, MOLM13 cells. Background: Tetrazolium dyes change colour on reduction, which living cells bring about.

What is called IC50 is the concentration that gives 50% inhibition. Take `Cc1cc(Nc2nccc(-n3cc(C(N)=O)c4cccnc43)n2)ccc1N1CCN(C)CC1` [Compound 136]: the IC50 is 100 to 1000 nM.
The figure for `NC(=O)c1cn(-c2nc(Nc3cccc(N4CCOCC4)c3)ncc2F)c2ccccc12` [Compound 137, 1-[5-fluoro-2-(3-morpholin-4-yl-phenylamino)-pyrimidin-4-yl]-1H-indole-3-carboxamide] is 1 to 10 nM; for `NC(=O)c1nn(-c2ccnc(Nc3cccc(N4CCNCC4)c3)n2)c2ccccc12` [Compound 138, 1-[2-(3-piperazin-1-yl-phenylamino)-pyrimidin-4-yl]-1H-indazole-3-carboxamide] it is 1 to 10 nM; for `NC(=O)c1cn(-c2nc(Nc3cccc(N4CCC(N5CCOCC5)CC4)c3)ncc2F)c2ccccc12` [Compound 139, 1-{5-fluoro-2-[3-(4-morpholin-4-yl-piperidin-1-yl)-phenylamino]-pyrimidin-4-yl}-1H-indole-3-carboxamide] it is 1 to 10 nM.
Take `CCN1CCN(c2cccc(Nc3ncc(F)c(-n4cc(C(N)=O)c5ccccc54)n3)c2)CC1` [Compound 142, 1-{2-[3-(4-ethyl-piperazin-1-yl)-phenylamino]-5-fluoro-pyrimidin-4-yl}-1H-indole-3-carboxamide]: the concentration for half-maximal inhibition (IC50) was below 1 nM.
Under `CN1CCN(Cc2cccc(Nc3ncc(F)c(-n4cc(C(N)=O)c5ccccc54)n3)c2)CC1` [Compound 143, 1-{5-fluoro-2-[3-(4-methyl-piperazin-1-ylmethyl)-phenylamino]-pyrimidin-4-yl}-1H-indole-3-carboxamide] stands 10 to 100 nM; under `CCC(C)N1CCN(c2cccc(Nc3ncc(F)c(-n4cc(C(N)=O)c5ccccc54)n3)c2)CC1` (centres unmarked) [Compound 145, 1-{2-[3-(4-sec-butyl-piperazin-1-yl)-phenylamino]-5-fluoro-pyrimidin-4-yl}-1H-indole-3-carboxamide], 10 to 100 nM; under `NC(=O)c1cn(-c2nc(Nc3cccc(N4CCNCC4)c3)ncc2F)c2ccccc12` [Compound 146], 10 to 100 nM.
For the compound `CC(C)(C)N1CCN(c2cccc(Nc3ncc(F)c(-n4cc(C(N)=O)c5ccccc54)n3)c2)CC1` [Compound 147, 1-{2-[3-(4-tert-butyl-piperazin-1-yl)-phenylamino]-5-fluoro-pyrimidin-4-yl}-1H-indole-3-carboxamide], the concentration for half-maximal inhibition (IC50) was below 1 nM.
In the case of `CN1CCC(N2CCN(c3cccc(Nc4ncc(F)c(-n5cc(C(N)=O)c6ccccc65)n4)c3)CC2)CC1` [Compound 148, 1-(5-fluoro-2-{3-[4-(1-methyl-piperidin-4-yl)-piperazin-1-yl]-phenylamino}-pyrimidin-4-yl)-1H-indole-3-carboxamide], the IC50 is 1 to 10 nM.
Under `COc1ccc2c(c1)c(C(N)=O)cn2-c1nc(Nc2cccc(N3CCN(C4CCOCC4)CC3)c2)ncc1F` [Compound 149, 1-(5-fluoro-2-{3-[4-(tetrahydro-pyran-4-yl)-piperazin-1-yl]-phenylamino}-pyrimidin-4-yl)-5-methoxy-1H-indole-3-carboxamide] stands 1 to 10 nM; under `NC(=O)c1cn(-c2nc(Nc3cccc(N4CCN(C5CCOC5)CC4)c3)ncc2F)c2ccccc12` (centres unmarked) [Compound 150, 1-(5-fluoro-2-{3-[4-(tetrahydro-furan-3-yl)-piperazin-1-yl]-phenylamino}-pyrimidin-4-yl)-1H-indole-3-carboxamide], 1 to 10 nM; under `COc1ccc2c(c1)c(C(N)=O)cn2-c1nc(Nc2cccc(N3CCN(C4CCOC4)CC3)c2)ncc1F` (centres unmarked) [Compound 151, 1-(5-fluoro-2-{3-[4-(tetrahydro-furan-3-yl)-piperazin-1-yl]-phenylamino}-pyrimidin-4-yl)-5-methoxy-1H-indole-3-carboxamide], 1 to 10 nM.
The figure for `NC(=O)c1cn(-c2nc(Nc3cccc(-n4cccn4)c3)ncc2F)c2ccccc12` [Compound 153, 1-[5-fluoro-2-(3-pyrazol-1-yl-phenylamino)-pyrimidin-4-yl]-1H-indole-3-carboxamide] is 100 to 1000 nM.
